Data set [1] deals with T1, Recombinant human BACE-1 (Homo sapiens, UniProt P56817).
T1 construct: purchased R&D Systems
The experiment in a line: Assay of BACE1 inhibitory activity. The class given is biochemical. Conditions: Recombinant human BACE1 7.4 nmol/L, substrate peptide 18 nmol/L, pH 5.0, 30° C. for 3 hours; read-out: IC50 (50% inhibitory concentration against the enzymatic activity). Here is the method:
48.5 μL of substrate peptide solution (Biotin-XSEVNLDAEFRHDSGC-Eu: X=ε-amino-n-capronic acid, Eu=Europium cryptate) was added to each well of 96-hole half-area plate (a black plate: Costar), and after addition of 0.5 μl of the compound of the present invention (N,N′-dimethylformamide solution) and 1 μl of Recombinant human BACE-1 (R&D Systems), the reaction mixture was incubated at 30° C. for 3 hours. The substrate peptide was synthesized by reacting Cryptate TBPCOOH mono SMP (CIS bio international) with Biotin-XSEVNLDAEFRHDSGC (Peptide Institute, Inc.). The final concentrations of the substrate peptide and Recombinant human BACE1 were adjusted to 18 nmol/L and 7.4 nmol/L, respectively, and the reaction was performed in sodium acetate buffer (50 mmol/L sodium acetate, pH 5.0, 0.008% Triton X-100). After the incubation for reaction, 50 μl of 8.0 μg/ml Streptavidin-XL665 (CIS bio international) dissolved in phosphate buffer (150 mmol/L K2HPO4—KH2PO4, pH 7.0, 0.008% Triton X-100, 0.8 mol/L KF) was added to each well and left stand at 30° C. for 1 hour. After then, fluorescence intensity was measured (excitation wavelength: 320 nm, measuring wavelength: 620 nm and 665 nm) using Wallac 1420 multilabel counter (Perkin Elmer life sciences). Enzymatic activity was determined from counting ratio of each wavelength (10,000×Count 665/Count 620) and 50% inhibitory concentration against the enzymatic activity (IC50) was calculated.

Data set [2] relates to Neuroblastoma SH-SY5Y cells (SH/APPwt) with human wild-type β-APP excessively expressed. The experiment in a line: Measurement of β-amyloid (Aβ) production inhibiting effect in cell. The class given is cell-based. Conditions: 24 hours incubation, Amyloid β 1-40 HTRF in culture supernatant, read-out: IC50 (amount needed to inhibit Aβ production by 50%). Here is the method:
Neuroblastoma SH-SY5Y cells (SH/APPwt) with human wild-type β-APP excessively expressed therein were prepared at 8×10^5 cells/mL, and 150 μl portions thereof were inoculated into each well of a 96-well culture plate (Falcon). The cells were cultured for 2 hours at 37° C. in a 5% gaseous carbon dioxide incubator. Then, a solution which have been preliminarily prepared by adding and suspending the compound of the present invention (DMSO (dimethyl sulfoxide) solution) so as to be 2 μl/50 μl medium was added to the cell sap. Namely, the final DMSO concentration was 1%, and the amount of the cell culture was 200 μl. After the incubation was performed for 24 hours from the addition of the test compound, 100 μl of the culture supernatant was collected from each fraction. The amount of the Aβ in each fraction was measured.
The Aβ amount was measured as follows. 10 μl of a homogeneous time resolved fluorescence (HTRF) measurement reagent (Amyloid β 1-40 peptide; IBA Molecular Holding, S.A.) and 10 μl of the culture supernatant were put into a 384-well half area microplate (black microplate, Costar) and mixed with each other, and then left standing overnight at 4° C. while the light was shielded. Then, the fluorescence intensity (excitation wavelength: 337 nm, measurement wavelength: 620 nm and 665 nm) was measured with Wallac 1420 multilabel counter (Perkin Elmer life sciences). The Aβ amount was determined from the count rate at each measurement wavelength (10000×Count 665/Count 620), and the amount needed to inhibit Aβ production by 50% (IC50) was calculated from at least six different dosages.

Data set [3] is described as follows: Brain distribution studies. The class given is in vivo. The following applies: brain/plasma; rat, intravenous 0.5 mg/mL/kg, 30 minutes later; read-out: brain Kp value (area ratio brain/plasma). As for the experimental part: Compound of the present invention is intravenously administered to a rat at 0.5 mg/mL/kg dosage.
The brain is enucleated and 20-25% of homogenate thereof is prepared with distilled water.
The obtained blood is used as plasma after centrifuging. To the brain sample is added the control plasma at 1:1. To the plasma samples is added the control brains at 1:1. Each sample is measured using LC/MS/MS. The obtained area ratio (a brain/plasma) is used for the brain Kp value.

Data set [4] can be described thus: Solubility test (turbidity, Test Example 7-1). The following applies: pH 6.8, aqueous buffer, kinetic from dmso stock; JP-II medium, 2% DMSO, turbidity after 4 hours; read-out: solubility assessed by 3 stages. The class given is physicochemical. Here is the method: A 2-fold dilution series (12 points) of a 10 mM solution of a compound of the present invention in DMSO was added to a medium (JP-I, JP-II) (2%), and solubility was assessed by 3 stages (High; >40 μM, Medium; 3-40 Low; <3 μM) from a turbidity after 4 hours.

The target of data set [5] is CYP3A4 (Homo sapiens, UniProt P08684). The experiment in a line: CYP3A4 fluorescent MBI test. The class given is in vitro ADME. On the set-up: host or cells: Escherichia coli. Conditions: 7-BFC substrate, pre-reaction 0 or 30 minutes, CYP3A4 expressed in Escherichia coli. As for the experimental part:
The CYP3A4 fluorescent MBI test is a test of investigating enhancement of CYP3A4 inhibition of the compound of the present invention by a metabolism reaction. 7-benzyloxytrifluoromethylcoumarin (7-BFC) is debenzylated by the CYP3A4 enzyme (enzyme expressed in Escherichia coli) and a metabolite, 7-hydroxytrifluoromethylcoumarin (7-HFC) which emits fluorescent light is produced. The test is performed using 7-HFC production reaction as an index.
The reaction conditions are as follows: substrate, […] 7-BFC; pre-reaction time, 0 or 30 minutes; reaction time, 15 minutes; reaction temperature, 25° C. […]
An enzyme in a K-Pi buffer (pH 7.4) and the compound of the present invention solution as a pre-reaction solution were added to a 96-well plate at the composition of the pre-reaction, a part of it was transferred to another 96-well plate so that it was 1/10 diluted by a substrate in a K-Pi buffer, NADPH as a co-factor was added to initiate a reaction as an index (without preincubation) and, after a predetermined time of a reaction, acetonitrile/0.5 mol/L Tris (trishydroxyaminomethane)=4/1 was added to stop the reaction. […] For the plate on which each index reaction had been performed, a fluorescent value of 7-HFC which is a metabolite was measured with a fluorescent plate reader. […]

As usually defined, the solubility is the concentration that dissolves in the medium under given conditions.

Some results are limits rather than exact numbers.

T1 sequence (P56817 46-501): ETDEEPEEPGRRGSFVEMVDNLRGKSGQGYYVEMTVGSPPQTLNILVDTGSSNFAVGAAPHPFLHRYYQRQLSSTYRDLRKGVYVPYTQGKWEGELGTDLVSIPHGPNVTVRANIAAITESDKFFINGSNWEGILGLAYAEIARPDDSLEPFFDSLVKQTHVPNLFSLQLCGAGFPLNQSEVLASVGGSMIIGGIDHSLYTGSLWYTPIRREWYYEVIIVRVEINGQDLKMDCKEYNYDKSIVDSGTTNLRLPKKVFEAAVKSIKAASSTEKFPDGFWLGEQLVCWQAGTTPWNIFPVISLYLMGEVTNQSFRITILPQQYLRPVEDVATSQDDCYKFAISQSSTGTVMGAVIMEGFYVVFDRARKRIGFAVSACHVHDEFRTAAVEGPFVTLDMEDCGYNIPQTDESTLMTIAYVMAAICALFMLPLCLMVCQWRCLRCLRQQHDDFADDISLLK
Chain of CYP3A4 (P08684 whole entry): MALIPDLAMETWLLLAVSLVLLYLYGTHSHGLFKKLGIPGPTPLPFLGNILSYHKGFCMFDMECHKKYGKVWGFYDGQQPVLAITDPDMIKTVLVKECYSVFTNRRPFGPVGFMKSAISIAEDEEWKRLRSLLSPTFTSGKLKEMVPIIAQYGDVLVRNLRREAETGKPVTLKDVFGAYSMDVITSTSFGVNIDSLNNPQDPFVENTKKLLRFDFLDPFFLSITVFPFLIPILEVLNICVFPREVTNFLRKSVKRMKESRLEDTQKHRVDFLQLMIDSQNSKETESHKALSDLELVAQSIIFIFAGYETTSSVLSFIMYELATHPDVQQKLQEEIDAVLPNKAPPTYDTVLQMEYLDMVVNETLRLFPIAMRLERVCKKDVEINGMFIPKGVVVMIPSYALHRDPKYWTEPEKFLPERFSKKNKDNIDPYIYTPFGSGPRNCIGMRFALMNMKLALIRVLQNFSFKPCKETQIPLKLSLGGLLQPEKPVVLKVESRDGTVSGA

Consider `CC#Cc1cncc(-c2csc([C@]3(C)Cc4nccn4C(N)=N3)c2)c1` [Compound I-4], for which the IC50 in data set [1] and in data set [2] was at most 1000 nM throughout.
In the case of `CC1(c2cc(-c3cccnc3F)ccc2F)Cc2cncn2C(N)=N1` (stereo not shown) [Compound I-7], the IC50 in data set [1] and in data set [2] was at most 1000 nM throughout. The Kp at 0.5 h in data set [3] came out at 1.7.
With `CC1(c2cc(NC(=O)c3ccc(C#N)cn3)ccc2F)Cc2cncn2C(N)=N1` (stereo not shown) [Compound I-6], the IC50 in data set [1] and in data set [2] was at most 1000 nM each time.
In the case of `C[C@@]1(c2cc(NC(=O)c3ccc(C#N)cn3)ccc2F)Cc2ccnn2C(N)=N1` [Compound I-3], the figures for the IC50 in data set [1] and in data set [2] were 36 nM and 3 nM, respectively.
As to `C[C@@]1(c2cc(NC(=O)c3ccc(C#N)cn3)ccc2F)Cc2nccn2C(N)=N1` [Compound I-1], the IC50 in data set [1] and in data set [2] was at most 1000 nM each time. In data set [4], the solubility at 4 h was above 40 µM. For the same molecule, in data set [5], the “CYP3A4 fluorescent MBI: difference between IC50 values without and with preincubation” value was “(−) (when the difference is 3 μM or less, this was defined as (−))”.
